Experimental data reported in patent US20180311244A1, “METHODS OF TREATING LIVER DISEASE” (Gilead Sciences, Inc., priority 2017, published 2018).
Marks after values point to notes of the source that are not given here.

Key:
[1] = test system: rodent model of non-alcoholic steatohepatitis (NASH); experiment: Picrosirius Red staining of liver in CDHFD rat NASH model; format: in vivo; conditions: CDHFD rats, 12 weeks; ASK1i 0.03% in chow, Formula (III) 10 mg/kg QD PO; FIG. 7
Procedure: The following study was conducted to evaluate the efficacy of the combination of an ASK1 inhibitor (ASK1i) and an ACC inhibitor (ACCi) in a rodent model of non-alcoholic steatohepatitis (NASH) relative to the efficacy of the individual agents alone in the model. In this model, NASH was induced in male Wistar rats by administration of a choline-deficient high fat diet (CDHFD).
Male Wistar (Crl:Wi(Han)) rats (aged 8-9 weeks at arrival) were acquired from Charles River, Raleigh, N.C. and used in the current studies. This study complie with all applicable sections of the Final Rules of the Animal Welfare Act regulations (Code of Federal Regulations, Title 9), the Public Health Service Policy on Humane Care and Use of Laboratory Animals from the Office of Laboratory Animal Welfare, and the Guide for the Care and Use of Laboratory Animals from the National Research Council. […]
Whole slide images of Picrosirius Red (PSR) stained slides were captured using a Leica AT2 scanner at 40× magnification. […] Quantitative image analysis was performed on the whole slide images using Visiopharm image analysis software (Visiopharm, Hoersholm, Denmark) to determine the extent and intensity of PSR. The total PSR-stained area was measured and expressed as a percentage of total liver area stained.

subjects with NASH = experiment: 12-week study of ASK1 inhibitor, ACC inhibitor and combination in subjects with NASH; format: in vivo, human
Procedure: Centrally-read PDFF and MRE, and serum fibrosis markers were measured at baseline (BL), W4 and W12. Deuterated water was administered to measure fractional synthesis of lipids (de novo lipogenesis [DNL]).

[2] = W12, orally QD, Formula (II) 18 mg, Formula (IV) 20 mg, combination 18/20 mg
[3] = serum, W12, orally QD, Formula (II) 18 mg, Formula (IV) 20 mg, combination 18/20 mg

Structure (SMILES)	Reduction of hepatic PSR (% area) [1]	PDFF compared with BL (in words) (subjects with NASH; 12 weeks orally QD, Formula (IV) p=0.006, combination p<0.001)	ALT compared with BL (in words) (subjects with NASH; 12 weeks orally QD, combination p=0.019)	PIII-NP compared with BL (in words) (subjects with NASH; 12 weeks orally QD, combination p=0.057)	TIMP-1 compared with BL (in words) (subjects with NASH; 12 weeks orally QD, p=0.049)	Grade 2 or higher AE, % of subjects (subjects with NASH; 12 weeks, orally QD, Formula (II) 18 mg, Formula (IV) 20 mg, combination 18/20 mg)	ALT, median relative (%) change from BL (subjects with NASH; [2])	GGT, median relative (%) change from BL (subjects with NASH; [2])	MRE, median relative (%) change from BL (subjects with NASH; [2])	MRI-PDFF, median relative (%) change from BL (subjects with NASH; [2])	≥30% reduction in MRI-PDFF, % of subjects (subjects with NASH; [2])	PIII-NP, median relative (%) change from BL (subjects with NASH; [3])	TIMP-1, median relative (%) change from BL (subjects with NASH; [3])
COc1ccccc1[C@H](Cn1c(=O)n(C(C)(C)C(=O)O)c(=O)c2c(C)c(-c3ncco3)sc21)O[C@H]1CC[C@@H](O)CC1 [Formula (III)]	50%												
COc1ccccc1[C@H](Cn1c(=O)n(C(C)(C)C(=O)O)c(=O)c2c(C)c(-c3ncco3)sc21)OC1CCOCC1 [Formula (IV)]		significant improvements	non-significant reductions	non-significant reductions	significant improvements	40%	−33.5%	−1.6%	−8.9%	−42.7* %	70%	−11.9%	−11.6* %
